Results published in patent US8957045B2, “Nucleoside phosphoramidates” (Gilead Pharmasset LLC, priority 2008, dated 2015).
Read-outs that look alike come from different tables or passages of the source.

Key:
[1] = tested on: HCV replicon RNA-containing Huh7 cells (clone A cells); test: HCV replicon assay; type: cell-based; settings: 4 days incubation, replicon RNA by RT-PCR, EC90 = 1-log10 reduction (ΔCt of 3.3), read-out: CloneA EC90
Description: HCV replicon RNA-containing Huh7 cells (clone A cells; Apath, LLC, St. Louis, Mo.) were kept at exponential growth in Dulbecco's modified Eagle's medium (high glucose) containing 10% fetal bovine serum, 4 mM L-glutamine and 1 mM sodium pyruvate, 1× nonessential amino acids, and G418 (1,000 μg/ml). Antiviral assays were performed in the same medium without G418. Cells were seeded in a 96-well plate at 1,500 cells per well, and test compounds were added immediately after seeding. Incubation time 4 days. At the end of the incubation step, total cellular RNA was isolated (RNeasy 96 kit; Qiagen). Replicon RNA and an internal control (TaqMan rRNA control reagents; Applied Biosystems) were amplified in a single-step multiplex RT-PCR protocol as recommended by the manufacturer. The HCV primers and probe were designed with Primer Express software (Applied Biosystems) and covered highly conserved 5′-untranslated region (UTR) sequences (sense primer: 5′-AGCCATGGCGTTAGTA(T)GAGTGT-3′ (SEQ ID NO:1); antisense primer: 5′-TTCCGCAGACCΔCTATGG-3′ (SEQ ID NO:2); and probe: 5′-FAM-[…]-TAMRA-3′ (SEQ ID NO:3)).
To express the antiviral effectiveness of a compound, the threshold RT-PCR cycle of the test compound was subtracted from the average threshold RT-PCR cycle of the no-drug control (ΔCtHCV). A ΔCt of 3.3 equals a 1-log 10 reduction (equal to the 90% effective concentration [EC90]) in replicon RNA levels. The cytotoxicity of the test compound could also be expressed by calculating the ΔCTRNA values. The ΔΔCt specificity parameter could then be introduced (ΔCtHCV-ΔCtRNA), in which the levels of HCV RNA are normalized for the rRNA levels and calibrated against the no-drug control.

Compound	EC90 ([1]; Hepatitis C virus, Huh-7, 96 h) [nM]	EC90 [1] [nM]	melting point [°C]
COc1nc(N)nc2c1ncn2[C@@H]1O[C@H](COP(=O)(N[C@@H](C)C(=O)OC(C)C)Oc2ccccc2)[C@@H](O)[C@@]1(C)F (stereo partly drawn) [Compound 11, (2S)-isopropyl 2-((((2R,3R,4R,5R)-5-(2-amino-6-methoxy-9H-purin-9-yl)-4-fluoro-3-hydroxy-4-methyltetrahydrofuran-2-yl)methoxy) (phenoxy)phosphorylamino)propanoate]	20		
COC(=O)[C@H](C)NP(=O)(OC[C@H]1O[C@@H](n2cnc3c(N4CCC4)nc(N)nc32)[C@](C)(F)[C@@H]1O)Oc1ccccc1 (stereo partly shown) [Compound 12]		70	
C[C@H](NP(=O)(OC[C@H]1O[C@@H](n2cnc3c(O)nc(N)nc32)[C@](C)(F)[C@@H]1O)Oc1ccccc1)C(=O)OC1CCCC1 (stereo partly drawn) [Compound 14, (2S)-cyclopentyl 2-((((2R,3R,4R,5R)-5-(2-amino-6-hydroxy-9H-purin-9-yl)-4-fluoro-3-hydroxy-4-methyltetrahydrofuran-2-yl)methoxy) (phenoxy)phosphorylamino)propanoate]	130		133 to 150
